{"source": "paper PMC7144120", "about": "“Psoralen Derivatives as Inhibitors of Mycobacterium tuberculosis Proteasome” (Molecules, 2020)", "key": {"[1]": {"tested_on": "Cc1cc(=O)oc2cc(NC(=O)[C@H](Cc3ccc(O)cc3)NC(=O)[C@@H](NC(=O)[C@H](CC(C)C)NC(=O)[C@H](CC(C)C)NC(=O)CCC(=O)O)C(C)C)ccc12", "assay": "purified protein, by the assay type", "conditions": "other: substrate of Mtb proteasome, 10 nM enzyme", "protocol": "Additionally, the Km of the substrate Suc-LLVY-AMC was calculated based on the initial velocity of the enzymatic reaction using 10 nM Mtb proteasome at various concentration of the substrate (12.5, 25, 50, 100, 250, 500 µM)."}, "Mtb proteasome [2]": {"target": "T1, Mtb proteasome (Mycobacterium tuberculosis, UniProt P9WHT9)", "T1 construct": "made in house", "T1 sequence (P9WHT9 whole entry, looked up)": "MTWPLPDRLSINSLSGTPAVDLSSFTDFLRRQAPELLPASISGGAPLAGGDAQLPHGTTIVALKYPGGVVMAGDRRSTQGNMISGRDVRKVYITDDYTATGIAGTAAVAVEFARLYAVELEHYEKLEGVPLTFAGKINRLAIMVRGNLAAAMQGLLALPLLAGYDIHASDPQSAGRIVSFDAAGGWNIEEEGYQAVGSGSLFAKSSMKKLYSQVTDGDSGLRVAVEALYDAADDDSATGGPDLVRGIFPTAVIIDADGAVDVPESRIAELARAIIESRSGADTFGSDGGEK", "assay": "biochemical", "format": "biochemical"}, "Mtb proteasome [3]": {"target": "T1, Mtb proteasome", "assay": "Determination of Ki and type of inhibition (varied substrate concentration, GraphPad Prism model fit)", "format": "biochemical", "procedure": "The concentrations of 11, 13 and 15 were 0, 0.56, 0.81, 1.15, 1.65, 2.35, 4.80, 9.80 and 20 µM. Further, the concentrations for compound 8 were 0, 1.65, 2.35, 4.80, 9.80 µM and for bortezomib 0, 0.28, 0.40, 0.58, 0.82, 1.18, 2.40, 4.90 and 10 µM. All experiments were performed in triplicate. The resulting data were analyzed using the GraphPad Prism 6 software and were fitted to the software provided models for competitive, noncompetitive, uncompetitive and mixed type enzyme inhibition. The mode of inhibition and Ki values were chosen from the best ranking model, as determined by the software. Representative graphs (Michaelis-Menten, Dixon and Lineweaver-Burk plots) depicting the data fit for the best ranking model of inhibition for all compounds are shown in the Supplementary data (Figures S2–S19)."}, "Mtb proteasome [4]": {"target": "T1, Mtb proteasome", "format": "biochemical"}, "Mtb proteasome [5]": {"target": "T1, Mtb proteasome", "assay": "Determination of kinact/Ki values for PR-957", "format": "biochemical", "conditions": "50 µM Suc-LLVY-AMC, 37 °C", "procedure": "The kinetic assays were conducted as previously described in Enzymatic assays. Briefly, 7.8 μL of the Mtb proteasome (final concentration of 7 nM) in 20 mM HEPES buffer, pH = 7.5 with 0.5 mM EDTA was added to 0.2 μL of the compound solution at 100x final concentration in DMSO. The concentrations of PR-957 used were 0, 1.15, 1.65, 2.35, 4.80, 9.80 and 20 µM. The enzymatic reaction was initiated by the addition of 2 μL Suc-LLVY-AMC (final concentration of 50 μM) and the reaction progress was determined on a BioTek Synergy HT microplate reader, by monitoring fluorescence at 460 nm (λex = 360 nm) for 90 min at 37 °C. Values of kobs were derived from the fit of the data to the equation P = (vi/kobs)x [1 − exp(−kobs·t)] in GraphPadPrism. The data obtained were afterwards plotted against inhibitor concentration, to obtain kinact/Ki by fitting to the equation […]. The representative plots are presented in Supplementary data (Figure S33–S36)."}, "ß5i of IP": {"tested_on": "ß5i of IP", "conditions": "read-out: IC50 against ß5i of IP; cited from earlier work"}, "Mtb proteasome [6]": {"target": "T1, Mtb proteasome", "design": "method as in PMID 16468985", "conditions": "substrate of Mtb proteasome; read-out: Km (literature value); cited from earlier work"}}, "note": "“Also recorded” adds a separate entry of the source. *1 amine or outer side, *2 acyl side, *3 side chain or, on linkers, in order; H or OH if unused. Where a SMILES comes first, the peptide text is derived from it. The star is where a group is joined. AMC = Cc1cc(=O)oc2cc(N*)ccc12; Suc = O=C(CCC(=O)[*:2])[*:1]"}
{"compound": "Mtb proteasome (Mycobacterium tuberculosis H37Rv)", "values": [{"measurement": "Km", "setting": "[1]", "value": "^aKi determined with GraphPad Prism by fitting the data to several inhibition models (mixed, competitive, noncompetitive, uncompetitive). The best scoring model was further examined by creating Dixon, Lineweaver-Burk and Michaelis-Menten plots. Km for Suc-LLVY-AMC is 60 ± 15 µM (see Supplementary data for details). ND, not determined. ^b The data were calculated as residual activities (RAs) of β5i in the presence of 10 μM of each compound (standard errors for RAs were < 15%). µM"}]}
{"compound": "COc1ccc(C[C@H](NC(=O)[C@H](C)NC(=O)CN2CCOCC2)C(=O)N[C@@H](Cc2ccccc2)C(=O)[C@@]2(C)CO2)cc1", "note": "[PR-957, reference compound]", "values": [{"measurement": "IC50", "setting": "Mtb proteasome [2]; 50 µM Suc-LLVY-AMC, 30 min preincubation, 37 °C, triplicate, read-out: IC50 against the Mtb proteasome", "value": "2200 ± 1000", "unit": "nM"}, {"measurement": "Hill Coefficient", "setting": "Mtb proteasome [2]; from IC50 curve, Mtb proteasome", "value": 0.91}, {"measurement": "Type of Inhibition", "setting": "Mtb proteasome [3]; best ranking model (mixed, competitive, noncompetitive, uncompetitive)", "value": "Noncompetitive inhibition"}, {"measurement": "Ki", "setting": "Mtb proteasome [3]; best scoring inhibition model, read-out: Ki", "value": 5200, "unit": "nM"}, {"measurement": "Reversibility of inhibition", "setting": "Mtb proteasome [4]; Mtb proteasome, 100-fold dilution after preincubation", "value": "irreversibly inhibited; also recorded: Irreversible inhibition"}, {"measurement": "recovery of proteasome activity", "setting": "Mtb proteasome [4]; concentration equal or higher than IC50", "value": "no significant recovery of proteasome activity; also recorded: completely inhibited the enzyme"}, {"measurement": "kinact/KI", "setting": "Mtb proteasome [5]", "value": 96, "unit": "M⁻¹ s⁻¹"}, {"measurement": "IC50", "setting": "ß5i of IP", "value": 15, "unit": "nM"}]}
{"compound": "Cc1cc(=O)oc2cc(NC(=O)[C@H](Cc3ccc(O)cc3)NC(=O)[C@@H](NC(=O)[C@H](CC(C)C)NC(=O)[C@H](CC(C)C)NC(=O)CCC(=O)O)C(C)C)ccc12", "note": "[Suc-LLVY-AMC] (Suc-LLVY-{AMC})", "values": [{"measurement": "Km", "setting": "Mtb proteasome [6]", "value": "56 ± 15", "unit": "µM"}]}
